Source: PMC9161449, “FUT8-Directed Core Fucosylation of N-glycans Is Regulated by the Glycan Structure and Protein Environment” (ACS Catalysis, 2021)
Several values for one entry are separate records, joined by “and”; a condition that tells them apart may be missing. Equal values may be shown once.

How the values were obtained:
[1] = molecular target: T1, human FUT8 (Homo sapiens, UniProt Q9BYC5); assay: Isothermal titration calorimetry (ITC) of ligands binding to FUT8
T1 construct: made in house
T1 sequence (Q9BYC5 1-575): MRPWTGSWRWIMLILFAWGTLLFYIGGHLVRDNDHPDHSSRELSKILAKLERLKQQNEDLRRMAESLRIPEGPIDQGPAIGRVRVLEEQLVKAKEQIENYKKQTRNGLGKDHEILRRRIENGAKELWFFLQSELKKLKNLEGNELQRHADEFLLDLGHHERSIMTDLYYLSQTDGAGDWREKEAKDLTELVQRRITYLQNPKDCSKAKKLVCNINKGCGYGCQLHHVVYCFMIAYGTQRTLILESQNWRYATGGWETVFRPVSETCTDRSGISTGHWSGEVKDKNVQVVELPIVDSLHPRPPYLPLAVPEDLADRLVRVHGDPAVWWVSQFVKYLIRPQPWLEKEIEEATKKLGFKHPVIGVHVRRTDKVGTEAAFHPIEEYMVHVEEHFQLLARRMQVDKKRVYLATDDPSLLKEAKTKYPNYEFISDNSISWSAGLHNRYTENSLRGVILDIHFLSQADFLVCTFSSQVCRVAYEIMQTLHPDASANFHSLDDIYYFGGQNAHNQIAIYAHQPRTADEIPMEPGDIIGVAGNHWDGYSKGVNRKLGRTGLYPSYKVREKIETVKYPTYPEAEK
Description: (§1) The human FUT8 was purified as previously described.[12]
ITC was performed to characterize the interaction of FUT8 with GDP, G0, the G0-peptide, the M3N2-peptide, M3N2, and M5N2-Asn. All experiments were carried out in an Auto-iTC200 (Microcal, GE Healthcare) at 25 °C. The concentration of FUT8 was 70 μM and the ligand concentration ranged from 400 μM to 1 mM. The experiments used 25 mM Tris (pH 7.5) and 150 mM NaCl for the characterization of the binding of FUT8 against GDP and G0. To characterize the binding of FUT8 against all N-glycans in the presence of an excess of GDP, the conditions were 25 mM Tris (pH 7.5), 150 mM NaCl, and 1 mM GDP. The experiments were performed in duplicate. Data integration, correction, and analysis were carried out in Origin 7 (Microcal). The data were fitted to a one-site equilibrium-binding model.

[2] = molecular target: T1, human FUT8; assay: FUT8 enzyme kinetics, GDP-Glo luminescence assay; assay type: biochemical
Description: as §1
Enzyme kinetics for FUT8 were determined using GDP-Glo luminescence assays (Promega). Reactions contained 100 nM FUT8 in 25 mM Tris (pH 7.5), 150 mM NaCl, and 200 μM GDP-fucose in the presence of the ligands. The concentrations of G0, the G0-peptide, the M3N2-peptide, M3N2, and M5N2-Asn ranged from 5 μM to 1 mM. To determine the kinetic parameters for GDP-fucose, we used 100 nM FUT8 in 25 mM Tris (pH 7.5), 150 mM NaCl, and variable concentrations of GDP-fucose (from 5 to 500 μM) in the presence of 500 μM of G0. Reactions were incubated for 30 min at 37 °C and stopped using 5 μL of GDP-detection reagent at a 1:1 ratio in white and opaque 384-well plates. Then, the plates were incubated in the dark for 1 h at room temperature. Subsequently, the luminance values were obtained by using a Synergy HT plate reader (Biotek).
To estimate the amount of GDP produced in the glycosyltransferase reaction, we created a GDP standard curve. The values were corrected for enzyme hydrolysis in the absence of the substrate acceptor and fitted to a nonlinear Michaelis–Menten equation in GraphPad Prism 6 software from which the Km, kcat, and Vmax along with their standard deviations were obtained. All the experiments were performed in duplicate.

[3] = molecular target: T1, human FUT8; assay: FUT8 substrate specificity by MALDI-TOF MS; assay type: biochemical; settings: 18 μM FUT8, 18 h at RT (long incubation)
Description: Solutions of the different N-glycan structures (1 nmol) were incubated with a FUT8 enzyme (18 μM) and GDP-fucose (2 nmol) in 25 mM Tris and 150 mM NaCl (pH 7.5) (total volume of 10 μL) for 18 h at RT. The reaction mixture was analyzed by MALDI-TOF mass spectrometry employing a solution of 2,5-dihydroxybenzoic acid (DHB, 5 mg/mL in CH3CN:0.1% TFA, 30:70, containing 0.05% NaCl) as a matrix. The MALDI-TOF spectra were recorded on an Ultraflextreme III time-of-flight mass spectrometer equipped with a pulsed Nd:YAG laser (355 nm) and controlled by FlexControl 3.3 software (Bruker Daltonics, Bremen, Germany). The m/z range was selected according to the mass of the sample and the acquired spectra were processed with FlexAnalysis 3.3 software (Bruker Daltonics, Bremen, Germany).

[4] = molecular target: T1, human FUT8; assay: STD NMR of ligands with FUT8; assay type: binding; settings: 20 μM FUT8, absence or presence of GDP (1 mM), 283 K
Description: All experiments were performed at a temperature of 283 K using a Bruker AVANCE-III 800 MHz spectrometer with a 5 mm TXI triple resonance probe with z axis pulse field gradients (5 mm PATXI 1H-13C/15N/D Z-GRD). The ligands, M3N2, the M3N2-peptide, the G0-peptide, and the naked peptide, had their labile protons exchanged with deuterium by dissolving in D2O, freeze-drying for three times, and finally dissolving at 5 mM in D2O. M3N2-peptide, G0-peptide, and naked peptide ^1H-NMR and ^13C-NMR signals were assigned using ^1H-^13C HSQC (hsqcedetgp), ^1H-^13C HSQC-TOCSY (hsqcgpmlph), TOCSY (mlevph), COSY (cosygmpfqf), and HMBC (hmbcgplpndqf). 2D-NOESY experiments were carried out for M3N2 and the M3N2-peptide using the Bruker pulse program noesygpph with mixing times (d8) of 100, 150, 200, 250, 300, 400, 600, 800, 1000, and 1500 ms. The relaxation time was set to 1 s. Fourier transform was applied to both dimensions and the corresponding horizontal traces were extracted for H1B (4.47 ppm) and H5A (3.42 ppm) in the case of the M3N2-peptide. […] Average H1A-H5A and H1B-H5B distances were calculated from the 1 μs MD simulation and used for the calculation according to the equation in Figure S9c.
STD NMR spectra were measured for the corresponding N-glycans in the presence of 20 μM FUT8 both with and without GDP (1 mM) using the Bruker pulse program stddiff.3. […]

[5] = system: CHO^KO:mgat1; assay: Site-specific N-glycan analysis of recombinant glycoproteins produced in CHO^KO:mgat1; assay type: cell-based; settings: for Man5-GlcNAc2-Fuc/total / Man5-GlcNAc2/total: total = sum of top five glycopeptide intensities by LC–MS
[6] = molecular target: human FUT8 (α-1,6-fucosyltransferase) (human) (UniProt Q9BYC5); assay: ITC; Auto-iTC200, 25 °C; FUT8 70 μM, ligand 400 μM to 1 mM; 25 mM Tris pH 7.5, 150 mM NaCl, 1 mM GDP (excess GDP); one-site model; duplicate
[7] = excess GDP (1 mM), 25 °C, pH 7.5
[8] = GDP titrated into FUT8, 25 °C, pH 7.5
[9] = 100 nM FUT8, 37 °C, 30 min, acceptors with 200 μM GDP-fucose, GDP-Fuc with saturating G0 (500 μM)

Work on `CC(=O)N[C@@H]1[C@@H](O)[C@H](O[C@@H]2O[C@H](CO)[C@@H](O[C@@H]3O[C@H](CO[C@H]4O[C@H](CO)[C@@H](O)[C@H](O)[C@@H]4O[C@@H]4O[C@H](CO)[C@@H](O)[C@H](O)[C@H]4NC(C)=O)[C@@H](O)[C@H](O[C@H]4O[C@H](CO)[C@@H](O)[C@H](O)[C@@H]4O[C@@H]4O[C@H](CO)[C@@H](O)[C@H](O)[C@H]4NC(C)=O)[C@@H]3O)[C@H](O)[C@H]2NC(C)=O)[C@@H](CO)O[C@H]1NC(=O)C[C@H](NC(=O)[C@H](C)NC(=O)[C@@H](NC(=O)[C@@H](N)CCCCN)C(C)C)C(=O)N[C@@H](CCCCN)C(=O)N[C@H](C(=O)O)[C@@H](C)O` [G0-peptide] yielded a Kd [1, 7] of 10 ± 4 µM.

With `Nc1nc2c(ncn2[C@@H]2O[C@H](COP(=O)(O)OP(=O)(O)O)[C@@H](O)[C@H]2O)c(=O)[nH]1` [GDP, reference compound] the Kd [1, 8] was 6.11 µM and 6.1 µM, the “n (stoichiometry of binding)” value [1, 8] was 0.60 and the ΔG [1, 8] was “–7.09 ± 1.65 kcal/mol”. The ΔH [1, 8] was “–5.02 ± 0.4 kcal/mol” and the “–TΔS” value [1, 8] was “–2.07 ± 0.48 kcal/mol”.

Work on `C[C@@H]1O[C@H](OP(=O)(O)OP(=O)(O)OC[C@H]2O[C@@H](n3cnc4c(=O)[nH]c(N)nc43)[C@H](O)[C@@H]2O)[C@@H](O)[C@H](O)[C@@H]1O` [GDP-Fuc, GDP-β-L-fucose] yielded a Km [2, 9] of 14.6 ± 3.4 µM, a Vmax [2, 9] of 244.3 ± 13.1 nmol·min^–1·mg^–1 and a kcat [2, 9] of 14.17 ± 0.76 min^–1. The “Catalytic efficiency of the transfer reaction relative to G0” value ([2]; GDP-Fuc more efficient than G0) was roughly 10 fold.

`CC(=O)N[C@H]1[C@H](O[C@H]2[C@H](O)[C@@H](NC(C)=O)C(O)O[C@@H]2CO)O[C@H](CO)[C@@H](O[C@@H]2O[C@H](CO[C@H]3O[C@H](CO)[C@@H](O)[C@H](O)[C@@H]3O)[C@@H](O)[C@H](O[C@H]3O[C@H](CO)[C@@H](O)[C@H](O)[C@@H]3O)[C@@H]2O)[C@@H]1O` (some centres unmarked) [M3N2, Man3GlcNAc2 N-glycan oligosaccharide] was tested, and the “FUT8 activity against acceptor substrate” value ([2]; acceptor 5 μM to 1 mM) was “inactive”, the “Binding to FUT8 by ITC” value ([1]; excess GDP (1 mM)) was “could not determine a Kd” and the “Core fucosylation by FUT8, qualitative (MALDI-TOF MS)” value [3] was “very poorly glycosylated”. For the same compound, the “STD NMR interaction with FUT8” value [4] was “no STD NMR signals were observed”.

`CC(=O)N[C@@H]1[C@@H](O)[C@H](O[C@@H]2O[C@H](CO)[C@@H](O[C@@H]3O[C@H](CO[C@H]4O[C@H](CO)[C@@H](O)[C@H](O)[C@@H]4O)[C@@H](O)[C@H](O[C@H]4O[C@H](CO)[C@@H](O)[C@H](O)[C@@H]4O)[C@@H]3O)[C@H](O)[C@H]2NC(C)=O)[C@@H](CO)O[C@H]1NC(=O)C[C@H](NC(=O)[C@H](C)NC(=O)[C@@H](NC(=O)[C@@H](N)CCCCN)C(C)C)C(=O)N[C@@H](CCCCN)C(=O)N[C@H](C(=O)O)[C@@H](C)O` [M3N2-peptide, Man3GlcNAc2 N-glycopeptide] showed a Kd [1, 7] of 406 ± 159 µM.

With `CC(=O)N[C@@H]1[C@@H](O)[C@H](O[C@@H]2O[C@H](CO)[C@@H](O[C@@H]3O[C@H](CO[C@H]4O[C@H](CO[C@H]5O[C@H](CO)[C@@H](O)[C@H](O)[C@@H]5O)[C@@H](O)[C@H](O[C@H]5O[C@H](CO)[C@@H](O)[C@H](O)[C@@H]5O)[C@@H]4O)[C@@H](O)[C@H](O[C@H]4O[C@H](CO)[C@@H](O)[C@H](O)[C@@H]4O)[C@@H]3O)[C@H](O)[C@H]2NC(C)=O)[C@@H](CO)O[C@H]1NC(=O)C[C@H](N)C(=O)O` [M5N2-Asn, Man5GlcNAc2-Asn] the “Initial velocity, fold worse than that of G0 and the G0-peptide” value ([2]; 1 mM acceptor substrate) was roughly 14 fold and the “Binding to FUT8 by ITC” value ([1]; excess GDP (1 mM)) was “could not observe a binding titration profile”.

“EPO: recombinant erythropoietin expressed in CHO cells” was tested, and the Man5-GlcNAc2-Fuc/total ([5]; EPO N-glycosite N51) was 0.48, the Man5-GlcNAc2/total ([5]; EPO N-glycosite N51) was 0.52 and the Man5-GlcNAc2-Fuc/total ([5]; EPO N-glycosite N65) was 0.90. It also gave a Man5-GlcNAc2/total ([5]; EPO N-glycosite N65) of 0.10, a Man5-GlcNAc2-Fuc/total ([5]; EPO N-glycosite N110) of 0.67 and a Man5-GlcNAc2/total ([5]; EPO N-glycosite N110) of 0.33. The “Core fucosylation of high-mannose N-glycan in KO mgat1” value ([5]; N65 glycosite) was “almost exclusively core-fucosylated” and the “Core fucosylation of high-mannose N-glycans in KO mgat1” value ([5]; all glycosites) was “acquired core Fuc to some degree”.

“G0-peptide (KVANKT carrying the biantennary complex N-glycan G0 on Asn4)” gave a dH [6] of -3.2 kcal/mol and a stoichiometry N [6] of 0.84.

With “M3N2-peptide (Man3GlcNAc2 N-glycopeptide, KVANKT)” the dH [6] was 7.7 kcal/mol and the stoichiometry N [6] was 1.6.
